# Experimental data as given in ChEMBL document CHEMBL1201862, “PubChem BioAssay data set” (2004).
#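 Each compound was tested at five concentrations against cells in 96-well plates for 48 hours. GI50 = concentration required for 50% inhibition of growth.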 Calls of active or inactive are those of the source. Rule as the data show it: active = GI50 up to about 1.1 µM and inactive = higher.
# Legend:
# Experiment in all cases: DTP human tumour cell line panel, 48 h
# A549 = system: A549
# CAKI-1 = system: CAKI-1
# COLO 205 = system: COLO 205
# HCC 2998 = system: HCC 2998
# HCT-116 = system: HCT-116
# HL-60 = system: HL-60
# HT-29 = system: HT-29
# KM12 = system: KM12
# M14 = system: M14
# MDA-MB-231 = system: MDA-MB-231
# MOLT-4 = system: MOLT-4
# Malme-3M = system: Malme-3M
# NCI-H522 = system: NCI-H522
# OVCAR-5 = system: OVCAR-5
# SK-MEL-2 = system: SK-MEL-2
# SK-MEL-5 = system: SK-MEL-5
# SN12C = system: SN12C
# SNB-75 = system: SNB-75
# TK-10 = system: TK-10
# UACC-257 = system: UACC-257
Structure (SMILES),GI50 (A549),GI50 (CAKI-1),GI50 (COLO 205),GI50 (HCC 2998),GI50 (HCT-116),GI50 (HL-60),GI50 (HT-29),GI50 (KM12),GI50 (M14),GI50 (MDA-MB-231),GI50 (MOLT-4),GI50 (Malme-3M),GI50 (NCI-H522),GI50 (OVCAR-5),GI50 (SK-MEL-2),GI50 (SK-MEL-5),GI50 (SN12C),GI50 (SNB-75),GI50 (TK-10),GI50 (UACC-257)
COc1cc(O)c2c(c1)C(O)C(O)CC1OC1C(=O)/C=C/CC(C)OC2=O (stereo not given),20.5 µM (inactive),1.08 µM (active),0.0877 µM (active),6.34 µM (inactive),1.11 µM (active),0.216 µM (active),0.0794 µM (active),10.4 µM (inactive),0.0933 µM (active),3.86 µM (inactive),2.03 µM (inactive),0.029 µM (active),1.52 µM (inactive),12.2 µM (inactive),2.72 µM (inactive),1.64 µM (inactive),3.72 µM (inactive),6.65 µM (inactive),2.28 µM (inactive),0.0849 µM (active)
COC(=O)C1=C(\c2ccccc2)c2ccccc2C(=O)N(C2CCCCC2)/C=C\1,16 µM (inactive),20.9 µM (inactive),14.5 µM (inactive),10.7 µM (inactive),19.4 µM (inactive),21.3 µM (inactive),21.9 µM (inactive),13.9 µM (inactive),28.6 µM (inactive),17.2 µM (inactive),> 100 µM (inactive),25.3 µM (inactive),36.4 µM (inactive),72.9 µM (inactive),12.9 µM (inactive),11.5 µM (inactive),28.3 µM (inactive),65.6 µM (inactive),41.3 µM (inactive),12.5 µM (inactive)
C[C@H](CCC(=O)O)[C@H]1CC[C@H]2[C@@H]3[C@@H](O)C[C@@H]4C[C@H](O)CC[C@]4(C)[C@H]3CC[C@]12C,61.4 µM (inactive),> 100 µM (inactive),> 100 µM (inactive),> 100 µM (inactive),61.7 µM (inactive),63.5 µM (inactive),> 100 µM (inactive),60 µM (inactive),95.3 µM (inactive),> 100 µM (inactive),89.7 µM (inactive),> 100 µM (inactive),> 100 µM (inactive),> 100 µM (inactive),> 100 µM (inactive),62.1 µM (inactive),> 100 µM (inactive),> 100 µM (inactive),99.3 µM (inactive),92.9 µM (inactive)
